Test system: HBMEC (Human Brain Microvascular Endothelial Cell)
Test: Nitric oxide production in HBMEC, gintonin pretreatment before NOS inhibitor
Type: cell-based
Settings: 100 uM synthase inhibitor, 1 h, vs DMSO only
Protocol: First of all, HBMEC (Human Brain Microvascular Endothelial Cell) or imHBMEC (immortalized Human Brain Microvascular Endothelial Cell) were cultured in an appropriate culture medium under air conditions of 37° C., 5% carbon dioxide and 95% relative humidity. When the cells reached 80 to 90% confluency (average ~2 days), 10 ug/mL of gintonin was first pretreated and incubated for 1 hour, and then, a nitric oxide synthase (NOS) inhibitor was treated and incubated for another hour, then, the effect of changes in nitric oxide (NO) production was investigated. Afterwards, the concentration of nitric oxide synthase inhibitor was treated at 100 and 300 uM.

Compound: COC(=O)[C@@H](N)CCCNC(=N)N[N+](=O)[O-].Cl [synthase inhibitor]
- reduction of nitric oxide (relative production): about 20%

From patent US20260216280A1, “COMPOSITION FOR PREVENTING AND TREATING ISCHEMIC CEREBROVASCULAR DISEASE COMPRISING GINTONIN” (Dongguk University Industry-Academic Cooperation Foundation, priority 2022, published 2026)
